The test system of one experiment is HCT116 MTAP null cells. Briefly: HCT116 MTAP null cell proliferation / viability (CellTiter-Glo, 6 days). Particulars: HCT116-MTAP null, 144 h, HCT116 MTAP null cells, 6 days, CellTiter-Glo; read-out: HCT-116 MTAP null IC50. The class given is cell-based. The method in brief:
(§1)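 Viability read by CellTiter-Glo after 6-day compound exposure of MTAP-null and wild-type HCT116 cells grown in RPMI 1640 with 10% FBS. Dosing used 1:3 steps from 1 or 10 μM (8-9 points) or 1:2 steps from 10 or 50 μM (22 points); IC50 taken where fitted curve crosses 50% of control.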
In general terms: In ATP-based viability assays light output follows the ATP content of the culture.

Another experiment has as its system HCT116 WT cells. Put plainly: HCT116 WT cell proliferation / viability (CellTiter-Glo, 6 days). The class given is cell-based. The following applies: Homo sapiens, HCT-116, 144 h, HCT116 WT cells, 6 days, CellTiter-Glo; read-out: HCT-116 WT IC50. The method in brief:
as §1

Some results are limits rather than exact numbers.

The values that follow come from patent US20240101570A1 (AMGEN INC., priority 2020, published 2024).

Consider `CC(C)N(Cc1ccc(C2CC2)nc1)C(=O)c1ccc2nc(N)c3c(c2c1)CO[C@@H]3C` [Example 350, (3R)-4-amino-N-((6-cyclopropyl-3-pyridinyl)methyl)-3-methyl-N-(2-propanyl)-1,3-dihydrofuro[3,4-c]quinoline-8-carboxamide], for which the values for the IC50 in the experiment with HCT116 MTAP null cells and with HCT116 WT cells were 332 nM and 22100 nM, respectively.
Turning to `CN(Cc1ccc(C(F)(F)F)nc1F)C(=O)c1cc2c(cc1F)nc(N)c1cnn(C)c12` [Example 782, 4-amino-7-fluoro-N-((2-fluoro-6-(trifluoromethyl)-3-pyridinyl)methyl)-N,1-dimethyl-1H-pyrazolo[4,3-c]quinoline-8-carboxamide], the IC50 in the experiment on HCT116 MTAP null cells was 80 nM; in the experiment with HCT116 WT cells it was 7770 nM.
In the case of `C[C@@H](c1ccc(C(F)(F)F)nn1)N(C(=O)c1cc2c(cc1Cl)nc(N)c1cnn(C)c12)C1CC1` (single isomer, unassigned) [Example 880], the IC50 in the experiment on HCT116 MTAP null cells worked out at 137 nM; in the experiment on HCT116 WT cells, 8310 nM.
`CC(C)N(Cc1ccc(C(F)(F)F)cc1)C(=O)c1cc2c3c(c(N)nc2cn1)COC3` [Example 733, 4-amino-N-(2-propanyl)-N-(4-(trifluoromethyl)benzyl)-1,3-dihydrofuro[3,4-c][1,7]naphthyridine-8-carboxamide]: the concentration for half-maximal inhibition (IC50) in the experiment with HCT116 MTAP null cells is 290 nM; in the experiment with HCT116 WT cells, 6300 nM.
With `CC(c1ccc(C(F)(F)F)cn1)N(C)C(=O)c1ccc2nc(N)c3c(cnn3C)c2c1` (racemic) [Example 716, 4-amino-N,3-dimethyl-N-((1R)-1-(5-(trifluoromethyl)-2-pyridinyl)ethyl)-3H-pyrazolo[3,4-c]quinoline-8-carboxamide and 4-amino-N,3-dimethyl-N-((1S)-1-(5-(trifluoromethyl)-2-pyridinyl)ethyl)-3H-pyrazolo[3,4-c]quinoline-8-carboxamide], the IC50 turned out to be 917 nM in the experiment on HCT116 MTAP null cells and 33300 nM in the experiment with HCT116 WT cells.
Turning to `COC[C@@H](C)N(Cc1ccc(Cl)nn1)C(=O)c1cc2c3c(c(N)nc2cn1)COC3` [Example 306, 4-amino-N-((6-chloro-3-pyridazinyl)methyl)-N-((2R)-1-methoxy-2-propanyl)-1,3-dihydrofuro[3,4-c][1,7]naphthyridine-8-carboxamide], the half-maximal inhibitory concentration (IC50) in the experiment on HCT116 MTAP null cells is 217 nM; in the experiment with HCT116 WT cells it was 7990 nM.
Turning to `CCN(C(=O)c1ccc2nc(N)c3c(c2c1)CO[C@@H]3C)[C@H](C)c1ccc(C#N)cn1` (single isomer, unassigned) [Example 844], the IC50 with HCT116 MTAP null cells is 105 nM; in the experiment on HCT116 WT cells, 6220 nM.
In the case of `Cn1ncc2c3cc(C(=O)N(Cc4ccc(C(F)(F)F)nn4)C4CCC4)c(F)cc3nc(N)c21` [Example 504, 4-amino-N-cyclobutyl-7-fluoro-3-methyl-N-((6-(trifluoromethyl)-3-pyridazinyl)methyl)-3H-pyrazolo[3,4-c]quinoline-8-carboxamide], the values for the IC50 in the experiment on HCT116 MTAP null cells and with HCT116 WT cells were 56 nM and 1850 nM, respectively.
Regarding `C[C@H](c1ncccn1)N(Cc1ccc(C(F)(F)F)cn1)C(=O)c1cc2c3c(c(N)nc2cc1F)COC3` [Example 435, 4-amino-7-fluoro-N-((1R)-1-(2-pyrimidinyl)ethyl)-N-((5-(trifluoromethyl)-2-pyridinyl)methyl)-1,3-dihydrofuro[3,4-c]quinoline-8-carboxamide], the figures for the IC50 with HCT116 MTAP null cells and with HCT116 WT cells were 14 nM and 65 nM, respectively.
For `CCN(Cc1ncn(C)n1)C(=O)c1ccc2nc(N)c3c(c2c1)CO[C@@H]3C` [Example 720, (3R)-4-amino-N-ethyl-3-methyl-N-((1-methyl-1H-1,2,4-triazol-3-yl)methyl)-1,3-dihydrofuro[3,4-c]quinoline-8-carboxamide], in that order: 14900 nM and over 50000 nM.
For `CN(Cc1ccc(C(F)(F)F)nn1)C(=O)c1ccc2nc(N)c3c(c2c1)COC3` [Example 352, 4-amino-N-methyl-N-((6-(trifluoromethyl)-3-pyridazinyl)methyl)-1,3-dihydrofuro[3,4-c]quinoline-8-carboxamide], in that order: 872 nM and over 10000 nM.
With `CC(C)N(Cc1ccc(C2CC2)cn1)C(=O)c1cc2c3c(c(N)nc2cn1)[C@@H](C)OC3` [Example 406, (3R)-4-amino-N-((5-cyclopropyl-2-pyridinyl)methyl)-3-methyl-N-(2-propanyl)-1,3-dihydrofuro[3,4-c][1,7]naphthyridine-8-carboxamide], the IC50 in the experiment with HCT116 MTAP null cells came out at 97 nM; in the experiment with HCT116 WT cells, 4140 nM.
For `CCN(Cc1ccc(C2CC2)cn1)C(=O)c1ccc2nc(N)c3c(c2c1)COC3` [Example 539, 4-amino-N-((5-cyclopropyl-2-pyridinyl)methyl)-N-ethyl-1,3-dihydrofuro[3,4-c]quinoline-8-carboxamide], in that order: 106 nM and 2100 nM.
As for `CCN(C(=O)c1ccc2nc(N)c3c(c2c1)COC3)[C@H](C)c1ccc(C(F)(F)F)cc1` [Example 743, 4-amino-N-ethyl-N-((1R)-1-(4-(trifluoromethyl)phenyl)ethyl)-1,3-dihydrofuro[3,4-c]quinoline-8-carboxamide], the IC50 in the experiment on HCT116 MTAP null cells came to 15 nM; in the experiment on HCT116 WT cells, 1090 nM.
Consider `C[C@H](c1cnc(C(F)(F)F)cn1)N(C)C(=O)c1ccc2nc(N)c3c(c2c1)COC3` [Example 774, 4-amino-N-methyl-N-((1R)-1-(5-(trifluoromethyl)-2-pyrazinyl)ethyl)-1,3-dihydrofuro[3,4-c]quinoline-8-carboxamide], for which the IC50 in the experiment on HCT116 MTAP null cells is 736 nM; in the experiment on HCT116 WT cells it was 40600 nM.
On to `Nc1nc2cc(Cl)c(C(=O)N(Cc3ccc(C(F)(F)F)nn3)CC3CC3)cc2c2c1COC2` [Example 741, 4-amino-7-chloro-N-(cyclopropylmethyl)-N-((6-(trifluoromethyl)-3-pyridazinyl)methyl)-1,3-dihydrofuro[3,4-c]quinoline-8-carboxamide], for which the IC50 in the experiment on HCT116 MTAP null cells is 42 nM; in the experiment with HCT116 WT cells it was 1020 nM.
With `Cc1noc2c1c(N)nc1ccc(C(=O)N(Cc3ccc(C(F)(F)F)cn3)CC(C)C)cc12` [Example 617, 4-amino-3-methyl-N-(2-methylpropyl)-N-((5-(trifluoromethyl)-2-pyridinyl)methyl)[1,2]oxazolo[4,5-c]quinoline-8-carboxamide], the IC50 is 245 nM in the experiment with HCT116 MTAP null cells and over 10000 nM in the experiment on HCT116 WT cells.
Regarding `C[C@H]1OCc2c1c(N)nc1ccc(C(=O)N(Cc3ccc(C4CC4)cn3)C3CC3)cc21` [Example 368, (3R)-4-amino-N-cyclopropyl-N-((5-cyclopropyl-2-pyridinyl)methyl)-3-methyl-1,3-dihydrofuro[3,4-c]quinoline-8-carboxamide], the values for the IC50 with HCT116 MTAP null cells and in the experiment on HCT116 WT cells were 65 nM and 3260 nM, respectively.
As to `Nc1nc2ccc(C(=O)N(Cc3ccc(C(F)(F)F)cn3)C3CCCn4ncnc43)cc2c2c1COC2` [Example 447, 4-amino-N-((8R)-5,6,7,8-tetrahydro[1,2,4]triazolo[1,5-alpyridin-8-yl)-N-((5-(trifluoromethyl)-2-pyridinyl)methyl)-1,3-dihydrofuro[3,4-c]quinoline-8-carboxamide and 4-amino-N-((8S)-5,6,7,8-tetrahydro[1,2,4]triazolo[1,5-a]pyridin-8-yl)-N-((5-(trifluoromethyl)-2-pyridinyl)methyl)-1,3-dihydrofuro[3,4-c]quinoline-8-carboxamide], the IC50 in the experiment on HCT116 MTAP null cells was found to be 31 nM; with HCT116 WT cells it was 256 nM.
As for `CC(C)N(C(=O)c1cc2c3c(c(N)nc2cc1Cl)COC3)[C@@H](C)c1ccc(C(F)(F)F)cn1` (single isomer, unassigned) [Example 846], the IC50 in the experiment with HCT116 MTAP null cells is 212 nM; in the experiment on HCT116 WT cells, 3940 nM.
On to `CN(Cc1ccc(S(F)(F)(F)(F)F)cc1)C(=O)c1cc2c3c(c(N)nc2cn1)COC3` [Example 511, 4-amino-N-methyl-N-(4-(pentafluoro-lambda~6~- sulfanyl)benzyl)-1,3-dihydrofuro[3,4-c][1,7]naphthyridine-8-carboxamide], for which the IC50 is 122 nM in the experiment on HCT116 MTAP null cells and 4920 nM with HCT116 WT cells.
For `Nc1nc2cc(F)c(C(=O)N(Cc3ccc(C(F)(F)F)cn3)c3cnn(C(F)(F)F)c3)cc2c2c1COC2` [Example 729, 4-amino-7-fluoro-N-(1-(trifluoromethyl)-1H-pyrazol-4-yl)-N-((5-(trifluoromethyl)-2-pyridinyl)methyl)-1,3-dihydrofuro[3,4-c]quinoline-8-carboxamide], in that order: 19 nM and 534 nM.
Regarding `C[C@H]1OCc2c1c(N)nc1cnc(C(=O)N(C)Cc3ccc(Br)cn3)cc21` (single isomer, unassigned) [Example 597], the IC50 stood at 200 nM in the experiment with HCT116 MTAP null cells and 15200 nM with HCT116 WT cells.
With `N#Cc1ccc(CN(C(=O)c2cc3c4c(c(N)nc3cn2)COC4)C2CC2)nc1` [Example 347, 4-amino-N-((5-cyano-2-pyridinyl)methyl)-N-cyclopropyl-1,3-dihydrofuro[3,4-c][1,7]naphthyridine-8-carboxamide], the IC50 in the experiment on HCT116 MTAP null cells was 712 nM; in the experiment with HCT116 WT cells, 43800 nM.
For `C[C@@H](c1ncc(C(F)(F)F)cc1F)N(C)C(=O)c1cc2c(cc1F)nc(N)c1cnn(C)c12` (single isomer, unassigned) [Example 864], in that order: 618 nM and 22700 nM.
As for `Cn1ncc2c3cc(C(=O)N(Cc4ccc(C(F)(F)F)nn4)CC4CC4)c(F)cc3nc(N)c21` [Example 731, 4-amino-N-(cyclopropylmethyl)-7-fluoro-3-methyl-N-((6-(trifluoromethyl)-3-pyridazinyl)methyl)-3H-pyrazolo[3,4-c]quinoline-8-carboxamide], the IC50 in the experiment on HCT116 MTAP null cells is 47 nM; in the experiment on HCT116 WT cells it was 2090 nM.
Take `Cn1cc(N(Cc2ccc(C(F)(F)F)nn2)C(=O)c2cc3c4c(c(N)nc3cc2F)COC4)cn1` [Example 750, 4-amino-7-fluoro-N-(1-methyl-1H-pyrazol-4-yl)-N-((6-(trifluoromethyl)-3-pyridazinyl)methyl)-1,3-dihydrofuro[3,4-c]quinoline-8-carboxamide]: the IC50 in the experiment on HCT116 MTAP null cells turned out to be 23 nM; in the experiment on HCT116 WT cells, 767 nM.

Usually IC50 stands for the concentration at which inhibition is half-maximal.
